We go through 2 substances from patent publication US9402917B2, “Methods for the induction of broadly anti-HIV-1 neutralizing antibody responses employing liposome-MPER peptide compositions” (priority 2009, dated 2016).

The assay deals with 2F5 mAb. Put plainly: SPR assay with liposome-anchored peptides. To be noted: 10 seconds after the injection was stopped; peptide anchored to liposomes. In kind it is binding. Background: In SPR one partner is held on a chip, and binding of the other changes the refractive index at the surface.

On to “QQEKNEQELLELDKWASLWNYKRWIILGLNKIVRMYS-biotin [consensus 2F5 epitope]”, for which the “binding response (background subtracted)” value was 494.6 response unit.

Consider “QQEKNEQELLELDKWASSWNYKRWIILGLNKIVRMYS-biotin”, for which the “binding response (background subtracted)” value is 616.7 response unit.
